Series [1] deals with Salmonella. Kind of series: Ames test (downscaled preincubation version). It is filed as cell-based. The conditions noted are these: downscaled standard preincubation Ames test. The protocol: Ames Test was performed as a downscaled version of the standard preincubation Ames test and adapted from the method described by Kado et al. with some modifications e.g. Maron. D. M. and B. N. Ames (1983). Revised methods for the Salmonella mutagenicity test. Mutation Research, 113, 173-215. N. Y. Kado, D. Langley and E. Eisenstadt A simple modification of the Salmonella liquid-incubation assay. Increased sensitivity for detecting mutagens in human urine, Mutat Res 121 (1983) 25-32.

In series [2] the target is human PDE10A (Homo sapiens (Human), UniProt Q9Y233). Kind of series: human PDE10A full length Scintillation Proximity Assay (SPA). Type of series: biochemical. The settings on record: 50 nM cGMP + 50 nM [3H]-cGMP, 20 minutes at room temperature, read-out: PDE10A inhibition IC50. The protocol:
The following test was carried out in order to determine the activity of the compounds of the present invention. […] The human PDE10A full length assay was performed in 96-well micro titer plates. […] A range of concentrations of the potential inhibitor was used to generate data for calculating the concentration of inhibitor resulting in 50% of the effect (e.g. […] Non-specific activity was tested without the enzyme. The reaction was initiated by the addition of the substrate solution (cGMP and [^3H]-cGMP) and allowed to progress for 20 minutes at room temperature. The reaction was terminated by adding 25 μl of YSi-SPA scintillation beads (GE Healthcare, cat. # RPNQ0150) in 18 mM zinc sulphate solution (stop reagent). […] Afterwards, radioactive counts were measured on a Perkin Elmer Top-Count Scintillation plate reader.

The text below walks through data of US9227970B2, “Triazolopyridine compounds” (Hoffmann-La Roche Inc., priority 2011, dated 2016).

human PDE10A, sequence (Q9Y233 other isoform, or with tags, fused parts or gaps): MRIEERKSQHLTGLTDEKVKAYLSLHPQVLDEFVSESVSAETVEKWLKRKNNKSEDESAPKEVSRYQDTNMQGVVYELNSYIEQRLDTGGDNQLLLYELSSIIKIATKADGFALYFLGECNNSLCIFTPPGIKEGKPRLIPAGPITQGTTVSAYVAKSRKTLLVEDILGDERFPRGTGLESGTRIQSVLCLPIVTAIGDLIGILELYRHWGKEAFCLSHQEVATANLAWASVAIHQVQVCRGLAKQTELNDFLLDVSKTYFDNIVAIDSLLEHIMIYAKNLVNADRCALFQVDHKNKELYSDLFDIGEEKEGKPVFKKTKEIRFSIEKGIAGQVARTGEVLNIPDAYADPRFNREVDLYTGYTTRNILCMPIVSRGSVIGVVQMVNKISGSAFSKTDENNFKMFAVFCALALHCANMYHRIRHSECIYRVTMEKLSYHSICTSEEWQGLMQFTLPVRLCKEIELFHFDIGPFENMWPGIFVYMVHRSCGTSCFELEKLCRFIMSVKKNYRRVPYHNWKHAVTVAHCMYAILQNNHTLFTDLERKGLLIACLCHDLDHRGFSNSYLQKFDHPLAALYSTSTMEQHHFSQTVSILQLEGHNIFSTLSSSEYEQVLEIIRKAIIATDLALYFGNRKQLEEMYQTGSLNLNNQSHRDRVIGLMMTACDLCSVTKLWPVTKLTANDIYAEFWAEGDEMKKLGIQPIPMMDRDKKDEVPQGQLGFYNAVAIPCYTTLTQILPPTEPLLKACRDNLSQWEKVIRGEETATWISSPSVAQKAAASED

Regarding `Cn1ncc(C(=O)N2CCC2)c1C(=O)Nc1ccc2nc(-c3ccccc3)nn2c1` [Example 3, 4-(Azetidine-1-carbonyl)-2-methyl-2H-pyrazole-3-carboxylic acid (2-phenyl-[1,2,4]triazolo[1,5-a]pyridin-6-yl)-amide], the melting point is 235 to 236 °C. Also, in series [1], the Ames test result is “negative”. Further, in series [2], the IC50 turned out to be 0.6 nM.

Molecule `Cn1ncc(C(=O)N2CCOCC2)c1C(=O)Nc1ccc2nc(-c3ccccc3)nn2c1` [Example 5, 1-Methyl-4-(morpholine-4-carbonyl)-N-(2-phenyl-[1,2,4]triazolo[1,5-a]pyridin-6-yl)-1H-pyrazole-5-carboxamide] displayed a melting point of 183 to 185 °C. For the same molecule, the Ames test result in series [1] is “negative”. The IC50 in series [2] was 2.5 nM.

`Cn1ncc(C(=O)N2CCC2)c1C(=O)Nc1ccc2nc(-c3cccnc3)nn2c1` [Example 10, 4-(Azetidine-1-carbonyl)-1-methyl-N-(2-(pyridin-3-yl)-[1,2,4]triazolo[1,5-a]pyridin-6-yl)-1H-pyrazole-5-carboxamide] had a melting point of 272 °C. The half-inhibitory concentration (IC50) in series [2] worked out at 43.6 nM.

In turn, `CN(C(=O)c1cnn(C)c1C(=O)Nc1ccc2nc(-c3cccnc3)nn2c1)C1CC1` [Example 11, N4-Cyclopropyl-N4,1-dimethyl-N5-(2-(pyridin-3-yl)-[1,2,4]triazolo[1,5-a]pyridin-6-yl)-1H-pyrazole-4,5-dicarboxamide] displayed a melting point of 237 °C. In addition, the Ames test result in series [1] is listed as “negative”. For the same molecule, the half-maximal inhibitory concentration (IC50) in series [2] came out at 6.7 nM.

With `Cn1ncc(C(=O)N2CCCC2)c1C(=O)Nc1ccc2nc(-c3cccnc3)nn2c1` [Example 12, 1-Methyl-N-(2-(pyridin-3-yl)-[1,2,4]triazolo[1,5-a]pyridin-6-yl)-4-(pyrrolidine-1-carbonyl)-1H-pyrazole-5-carboxamide], the melting point amounted to 251 °C. The IC50 in series [2] was 17.9 nM.

The molecule `Cn1ncc(C(=O)N2CCCC2)c1C(=O)Nc1ccc2nc(N3CCOCC3)nn2c1` [Example 13, 2-Methyl-4-(pyrrolidine-1-carbonyl)-2H-pyrazole-3-carboxylic acid (2-morpholin-4-yl-[1,2,4]triazolo[1,5-a]pyridin-6-yl)-amide] showed a melting point of 185 °C. Moreover, the concentration for half-maximal inhibition (IC50) in series [2] was determined as 15.4 nM.

Turning to `Cn1ncc(C(=O)N2CCC2)c1C(=O)Nc1ccc2nc(N3CCOCC3)nn2c1` [Example 15], the Ames test result in series [1] is “negative”.

For the molecule `CN(C(=O)c1cnn(C)c1C(=O)Nc1ccc2nc(N3CCOCC3)nn2c1)C1CC1` [Example 18, 2-Methyl-2H-pyrazole-3,4-dicarboxylic acid 4-(cyclopropyl-methyl-amide) 3-[(2-morpholin-4-yl-[1,2,4]triazolo[1,5-a]pyridin-6-yl)-amide]], the melting point is 172 °C. Further, the half-inhibitory concentration (IC50) in series [2] worked out at 7.2 nM.

On to `CN(C)c1nc2ccc(NC(=O)c3c(C(=O)N4CCOCC4)cnn3C)cn2n1` [Example 19, 2-Methyl-4-(morpholine-4-carbonyl)-2H-pyrazole-3-carboxylic acid (2-dimethylamino-[1,2,4]triazolo[1,5-a]pyridin-6-yl)-amide], for which the Ames test entry in series [1] is recorded as “negative”. For the same molecule, the concentration for half-maximal inhibition (IC50) in series [2] is 36 nM.

Take `CN(C)c1nc2ccc(NC(=O)c3c(C(=O)N4CCC4)cnn3C)cn2n1` [Example 20, 4-(Azetidine-1-carbonyl)-2-methyl-2H-pyrazole-3-carboxylic acid (2-dimethylamino-[1,2,4]triazolo[1,5-a]pyridin-6-yl)-amide]: the Ames test entry in series [1] is on record as “negative”. For the same molecule, the IC50 in series [2] turned out to be 8.2 nM.
